In patent US11453689B2, “3-pyrrolidine-indole derivatives as serotonergic psychedelic agents for the treatment of CNS disorders” (Mindset Pharma Inc., priority 2020, dated 2022):
Like-named read-outs stand apart in the source and are kept apart here.

Columns and labels:
[1] = molecular target: human 5-HT2A (h5-HT2A) receptor (Homo sapiens (Human), UniProt P28223); assay: FLIPR calcium assay, human 5-HT2A receptor, agonist mode; type: cell-based
Protocol: I. Assessment of the Activated Effect of Exemplary Compounds of Formula I Targeting on Human 5-HT2A (h5-HT2A) Receptor Under Agonist Mode:
1. Culture the cells in cell culture medium (DMEM containing 10% FBS, 1× penicillin-streptomycin 300 μg/ml G418 and 100 μg/ml hygromycin B) at 37° C., 5% (v/v) CO2.
2. One day before the assays, detach the cell using TrypLE™ Express and count cells using cell counter.
3. Seed 20000 cells/well in 30 μl/well culture medium to a 384-well cell plate and incubate the cells overnight at 37° C., 5% (v/v) CO2.
4. On the assay day, prepare 2×dye solution following the manual of the FLIPR® Calcium 6 Assay Kit: i. Dilute the dye with assay buffer(20 mM HEPES in 1× HBSS, PH7.4); ii. Add probenecid to the final concentration of 5 mM; iii. Vortex vigorously for 1-2 minutes.
5. Medium from cell plate by flicking the cell plate on towel papers.
6. Add 10 μl of assay buffer and 10 μl of 2×dye solution to each well of the cell plate.
7. Put the cell plate on plate shaker, agitate the plate at 600 rpm for 2 minutes. Incubate the plate at 37° C. for 2 hours followed by additional 15-minute incubation at 25° C.
8. Prepare 3×compound in assay buffer: a. Dilute reference compounds to required concentration with DMSO. Add the compounds to a 384-well compound plate; b. Perform serial dilutions; c. Add 10 mM test compounds to the compound plate, perform 3-fold serial dilutions. d. […] Add 20 μl/well assay buffer to the compound plate; f. Mix the plate on plate shaker for 2 mins;
i. The normalized fluorescence reading (RFU) is calculated as shown follow, while Fmax and Fmin stand for maximum and minimum of calcium signal during defined time window: RFU=Fmax−Fmin
ii. Calculate the percentage activation by using following equation: […]
iii. Calculate EC50 by fitting % activation against log of compound concentrations with Hill equation using XLfit.

human 5-HT2A receptor = human 5-HT2A receptor (Homo sapiens (Human), UniProt P28223); assay: Radioligand ([3H]-ketanserin) binding assay on human 5-HT2A receptor
Protocol: i. Prepare the assay buffer following the table below;
ii. Preparation of 8 doses of reference and exemplary test compounds starting from 10 mM stock solution as requested by 5-fold serial dilutions with 100%;
iii. […] a. Add 50 μl/well of 0.5% (v/v) PEI to UniFilter-96 GF/B plates. Seal the plates and incubate at 4° C. for 3 hrs; b. After incubation, wash the plates 3 times with ice-cold wash buffer (50 mM Tris, pH7.4);
iv. Preparation of assay plates: a. Dilute cell membrane with assay buffer and add 330 μl/well to 96 round deep well plates to reach a concentration of 20 μg/well; b. Prepare 8 concentrations of reference or exemplary test compounds and add 110 μl/well to 96 round deep well plates; c. Dilute [3H]-ketanserin with assay buffer to 5 nM (5× final concentration) and add 110 μl/well to 96 round deep well plates.
v. Centrifuge the plate at 1000 rpm for 30 secs and then agitate at 600 rpm, R.T. for 5 min.
vi. Seal the plates and incubate the plate at 27° C. for 90 min.
vii. Stop the incubation by vacuum filtration onto GF/B filter plates followed by 4 times washing with ice-cold wash buffer (50 mM Tris, pH7.4).
ix. Seal the filter plates and add 40 μl/well of scintillation cocktail.
x. Read the plate by using a Microbeta2 microplate counter.
For reference and exemplary test compounds, the results are expressed as % Inhibition, using the normalization equation: N=100−100×(U−C2)/(C1−C2), where U is the unknown value, C1 is the average of high controls, and C2 is the average of low controls. The IC50 is determined by fitting percentage of inhibition as a function of compound concentrations with Hill equation using XLfit.

[2] = Human liver microsomes stability with NADPH
Protocol: (§1) The objective of this study was to estimate in vitro metabolic stability of exemplary compounds in pooled human, male rat and male mouse liver microsomes. The concentrations of exemplary compounds in reaction systems were evaluated by LC-MS/MS for estimating the stability in pooled human, male rat and male mouse liver microsomes. The in vitro intrinsic clearances of test compounds were determined as well.
(§2) A master solution in the “Incubation Plate” containing phosphate buffer, ultra-pure H2O, MgCl2 solution and liver microsomes was made according to Table 3. The mixture was pre-warmed at 37° C. water bath for 5 minutes.
(§3) 40 μL of 10 mM NADPH solution was added to each well. The final concentration of NADPH was 1 mM. The negative control samples were prepared by replacing NADPH with 40 μL of ultra-pure H2O. Samples were prepared in duplicate. Negative controls were prepared in singlet.
(§4) The reaction was started with the addition of 4 μL of 200 μM exemplary test compounds or control compounds to each master solution to get the final concentration of 2 μM. This study was performed in duplicate.
(§5) Aliquots of 50 μL were taken from the reaction solution at 0, 15, 30, 45 and 60 minutes. The reaction solutions were stopped by the addition of 4 volumes of cold methanol with IS (100 nM alprazolam, 200 nM imipramine, 200 nM labetalol and 2 μM ketoprofen). Samples were centrifuged at 3,220 g for 40 minutes. Aliquot of 90 μL of the supernatant was mixed with 90 μL of ultra-pure H2O and then was used for LC-MS/MS analysis.
(§6) LC/MS analysis was performed for all samples from this study using a Shimadzu liquid chromatograph separation system equipped with degasser DGU-20A5R; solvent delivery unit LC-30AD; system controller SIL-30AC; column oven CTO-30A; CTC Analytics HTC PAL System. Mass spectrometric analysis was performed using an Triple Quad™ 5500 instrument.
(§7) All calculations were carried out using Microsoft Excel. Peak areas were determined from extracted ion chromatograms. The slope value, k, was determined by linear regression of the natural logarithm of the remaining percentage of the parent drug vs. incubation time curve.
(§8) Conversion of the in vitro t1/2 (min) into the in vitro intrinsic clearance (in vitro CLint, in μL/min/mg proteins) was done using the following equation (mean of duplicate determinations): […]

[3] = Rat liver microsomes stability with NADPH
Protocol: as §1, §2, §3, §4, §5, §6, §7, §8

[4] = Mouse liver microsomes stability with NADPH
Protocol: as §1, §2, §3, §4, §5, §6, §7, §8

[5] = tested on: head-twitch response (HTR) in male C57BL6 mice; assay: Mouse head-twitch response (HTR); type: in vivo; details: M100907 0.5 mg/kg IP before I-2 10 mg/kg SC
Protocol: Male, C57BL/6J mice (body weight range 20-30 g) were dosed with the appropriate dose of test article, and following a 1-minute pre-treatment time, placed in individual observation chambers. Animals were visually assessed for the incidence head twitches continuously over a 1 hr period. Head twitches were defined as a rapid jerk of the head which was not elicited by an external tactile stimulus (Come and Pickering, Psychopharmacologia, 1967, 11(1): 65-78). Each head twitch was individually counted by a trained observer, and the data expressed as the mean±SEM of 6-10 mice per group. Mice were used in a single experiment only.
The effect of various doses of exemplary compound of Formula I, I-2, on head-twitch response (HTR) in male C57BL6 mice were measured. The mice were treated with compound I-2 (0.03-10 mg/kg, SC) by SC route (N=6 mice/dose), and the total number of head twitches were recorded over a 1h period. Data is expressed as mean±SEM. The induction of head twitches elicited by 5-HT2A receptor agonists is believed to represent a behavioural proxy of their psychedelic effects.
To evaluate the involvement of 5-HT2A receptor on the HTR induced by exemplary compounds of Formula I, mice were pretreated with the selective 5-HT2AR antagonist M100907 (also known as volinanserin) prior to the administration of exemplary compounds of Formula I, for example, 1-2 (10 mg/kg SC).

[6] = tobacco use disorder, cited from earlier work

**Q.** With `[2H]C([2H])(c1c[nH]c2cccc(O)c12)[C@H]1CCCN1` [Compound I-50, (R)-3-(pyrrolidin-2-ylmethyl-d2)-1H-indol-4-ol] as the compound, how does the EC50 [1] read?
**A.** < 1000 nM

**Q.** And the IC50 (human 5-HT2A receptor)?
**A.** 500 to 5000 nM

**Q.** What about the “Remaining Percentage (%) after 60 min, Human” value ([2]; human liver microsomes, with NADPH, 2 μM) of the same compound?
**A.** 69.29%

**Q.** And the half-life at 2 μM ([2]; human, microsomes)?
**A.** 1.89 h

**Q.** What about the microsomal CLint at 2 μM ([2]; human, microsomes) of the same compound?
**A.** 12.2 µL/min/mg

**Q.** What about the half-life at 2 μM ([3]; male, rat, microsomes) of the same compound?
**A.** 0.662 h

**Q.** What about the microsomal CLint at 2 μM ([3]; male, rat, microsomes) of the same compound?
**A.** 34.9 µL/min/mg

**Q.** What about the “Remaining Percentage (%) after 60 min, Rat” value ([3]; rat liver microsomes, with NADPH, 2 μM) of the same compound?
**A.** 34.11%

**Q.** And the half-life at 2 μM ([4]; male, mouse, microsomes)?
**A.** 1.24 h

**Q.** And the microsomal CLint at 2 μM ([4]; male, mouse, microsomes)?
**A.** 18.6 µL/min/mg

**Q.** And the “Remaining Percentage (%) after 60 min, Mouse” value ([4]; mouse liver microsomes, with NADPH, 2 μM)?
**A.** 57.27%

**Q.** With `COc1cccc([C@H](O)C2CCN(CCc3ccc(F)cc3)CC2)c1OC` [Compound M100907, reference compound] as the compound, how does the “effect of I-2 on HTR after pretreatment with 5-HT2A antagonist M100907” value [5] read?
**A.** completely blocked

**Q.** With `CN(C)CCc1c[nH]c2cccc(OP(=O)(O)O)c12` [psilocybin, 4-phosphoryloxy-N,N-dimethyltrypatmine] as the compound, how does the abstinence rate ([6]; 12 months follow-up) read?
**A.** 67%

**Q.** What about the abstinence rate ([6]; six months follow-up) of the same compound?
**A.** 80%
